From ChEMBL document CHEMBL5625261, “Cytotoxic effects of kinetin riboside and its selected analogues on cancer cell lines” (Bioorg Med Chem Lett, 2024)
pIC50: −log10 of the molar value.

Key:
MIA PaCa-2 [1] = experiment: Cytotoxicity against human MIA PaCa-2 cells assessed as reduction in cell viability incubated for 24 hrs by MTT assay; assay type: functional, cell-based; conditions: MIA PaCa-2, 24 h
HeLa [2] = experiment: Cytotoxicity against human HeLa cells assessed as reduction in cell viability incubated for 24 hrs by MTT assay; assay type: functional, cell-based
MIA PaCa-2 [3] = experiment: Cytotoxicity against human MIA PaCa-2 cells assessed as reduction in cell viability incubated for 72 hrs by MTT assay; assay type: functional, cell-based; conditions: MIA PaCa-2, 72 h
Caco-2 [4] = experiment: Cytotoxicity against human Caco-2 cells assessed as reduction in cell viability incubated for 48 hrs by MTT assay; assay type: functional, cell-based; conditions: Caco-2, 48 h
MIA PaCa-2 [5] = experiment: Cytotoxicity against human MIA PaCa-2 cells assessed as reduction in cell viability incubated for 48 hrs by MTT assay; assay type: functional, cell-based; conditions: MIA PaCa-2, 48 h
MCF7 [6] = experiment: Cytotoxicity against human MCF7 cells assessed as reduction in cell viability incubated for 48 hrs by MTT assay; assay type: functional, cell-based; conditions: MCF7, 48 h
HeLa [7] = experiment: Cytotoxicity against human HeLa cells assessed as reduction in cell viability incubated for 48 hrs by MTT assay; assay type: functional, cell-based
[8] = Cytotoxicity against human MRC5 cells assessed as reduction in cell viability incubated for 24 hrs by MTT assay; assay type: toxicity, cell-based
[9] = Cytotoxicity against human MRC5 cells assessed as reduction in cell viability incubated for 72 hrs by MTT assay; assay type: toxicity, cell-based
Caco-2 [10] = experiment: Cytotoxicity against human Caco-2 cells assessed as reduction in cell viability incubated for 24 hrs by MTT assay; assay type: functional, cell-based; conditions: Caco-2, 24 h
Caco-2 [11] = experiment: Cytotoxicity against human Caco-2 cells assessed as reduction in cell viability incubated for 72 hrs by MTT assay; assay type: functional, cell-based; conditions: Caco-2, 72 h
MCF7 [12] = experiment: Cytotoxicity against human MCF7 cells assessed as reduction in cell viability incubated for 24 hrs by MTT assay; assay type: functional, cell-based; conditions: MCF7, 24 h
HeLa [13] = experiment: Cytotoxicity against human HeLa cells assessed as reduction in cell viability incubated for 72 hrs by MTT assay; assay type: functional, cell-based
[14] = Cytotoxicity against human MRC5 cells assessed as reduction in cell viability incubated for 48 hrs by MTT assay; assay type: toxicity, cell-based
OVCAR-3 [15] = experiment: Cytotoxicity against human OVCAR-3 cells assessed as reduction in cell viability incubated for 24 hrs by MTT assay; assay type: functional, cell-based; conditions: OVCAR-3, 24 h
MCF7 [16] = experiment: Cytotoxicity against human MCF7 cells assessed as reduction in cell viability incubated for 72 hrs by MTT assay; assay type: functional, cell-based; conditions: MCF7, 72 h
OVCAR-3 [17] = experiment: Cytotoxicity against human OVCAR-3 cells assessed as reduction in cell viability incubated for 72 hrs by MTT assay; assay type: functional, cell-based; conditions: OVCAR-3, 72 h
OVCAR-3 [18] = experiment: Cytotoxicity against human OVCAR-3 cells assessed as reduction in cell viability incubated for 48 hrs by MTT assay; assay type: functional, cell-based; conditions: OVCAR-3, 48 h

## OC[C@H]1O[C@@H](n2cnc3c(NCc4cccs4)ncnc32)[C@H](O)[C@@H]1O
MIA PaCa-2 [1]
  pIC50: < 4.00
HeLa [2]
  pIC50: < 4.00
MIA PaCa-2 [3]
  pIC50: 5.96
Caco-2 [4]
  pIC50: 4.98
MIA PaCa-2 [5]
  pIC50: 5.92
MCF7 [6]
  pIC50: 5.52
HeLa [7]
  pIC50: < 4.00
[8]
  IC50 at 24 h: 12.7 µM
[9]
  IC50 at 72 h: 1.8 µM
Caco-2 [10]
  pIC50: 4.77
Caco-2 [11]
  pIC50: 5.23
MCF7 [12]
  pIC50: 4.68
HeLa [13]
  pIC50: < 4.00
[14]
  IC50 at 48 h: 2.1 µM
OVCAR-3 [15]
  pIC50: < 4.00
MCF7 [16]
  pIC50: 5.59
OVCAR-3 [17]
  pIC50: 5.82
OVCAR-3 [18]
  pIC50: 5.54

## Nc1nc(NCc2ccco2)nc2c1ncn2[C@@H]1O[C@H](CO)[C@@H](O)[C@H]1O
MIA PaCa-2 [1]
  pIC50: < 4.00
HeLa [2]
  pIC50: < 4.00
MIA PaCa-2 [3]
  pIC50: < 4.00
Caco-2 [4]
  pIC50: < 4.00
MIA PaCa-2 [5]
  pIC50: < 4.00
MCF7 [6]
  pIC50: < 4.00
HeLa [7]
  pIC50: < 4.00
[8]
  IC50 at 24 h: > 100 µM
[9]
  IC50 at 72 h: > 100 µM
Caco-2 [10]
  pIC50: < 4.00
Caco-2 [11]
  pIC50: < 4.00
MCF7 [12]
  pIC50: < 4.00
HeLa [13]
  pIC50: < 4.00
[14]
  IC50 at 48 h: > 100 µM
OVCAR-3 [15]
  pIC50: < 4.00
MCF7 [16]
  pIC50: < 4.00
OVCAR-3 [17]
  pIC50: < 4.00
OVCAR-3 [18]
  pIC50: < 4.00

## OC[C@H]1O[C@@H](n2cnc3c(NCc4ccco4)ncnc32)[C@@H](O)[C@@H]1O
MIA PaCa-2 [1]
  pIC50: < 4.00
HeLa [2]
  pIC50: < 4.00
MIA PaCa-2 [3]
  pIC50: < 4.00
Caco-2 [4]
  pIC50: < 4.00
MIA PaCa-2 [5]
  pIC50: < 4.00
MCF7 [6]
  pIC50: < 4.00
HeLa [7]
  pIC50: < 4.00
[8]
  IC50 at 24 h: > 100 µM
[9]
  IC50 at 72 h: > 100 µM
Caco-2 [10]
  pIC50: < 4.00
Caco-2 [11]
  pIC50: < 4.00
MCF7 [12]
  pIC50: < 4.00
HeLa [13]
  pIC50: < 4.00
[14]
  IC50 at 48 h: > 100 µM
OVCAR-3 [15]
  pIC50: < 4.00
MCF7 [16]
  pIC50: < 4.00
OVCAR-3 [17]
  pIC50: < 4.00
OVCAR-3 [18]
  pIC50: < 4.00

## OC[C@H]1O[C@@H](n2nnc3c(NCc4ccco4)ncnc32)[C@H](O)[C@@H]1O
MIA PaCa-2 [1]
  pIC50: < 4.00
HeLa [2]
  pIC50: < 4.00
MIA PaCa-2 [3]
  pIC50: 5.96
Caco-2 [4]
  pIC50: 4.73
MIA PaCa-2 [5]
  pIC50: 5.55
MCF7 [6]
  pIC50: 5.37
HeLa [7]
  pIC50: 4.84
[8]
  IC50 at 24 h: > 100 µM
[9]
  IC50 at 72 h: 4.6 µM
Caco-2 [10]
  pIC50: 4.60
Caco-2 [11]
  pIC50: 4.94
MCF7 [12]
  pIC50: 4.57
HeLa [13]
  pIC50: 5.34
[14]
  IC50 at 48 h: 11.7 µM
OVCAR-3 [15]
  pIC50: < 4.00
MCF7 [16]
  pIC50: 5.42
OVCAR-3 [17]
  pIC50: 5.96
OVCAR-3 [18]
  pIC50: 4.12
